The values that follow come from PubChem BioAssay (NCI).

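Grown in 96-well plates, cells were treated for 48 hours with each compound at five concentrations. Insufficient inhibition: endpoint recorded as highest concentration tested. At the TGI there is no net growth.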 Some results are limits rather than exact numbers.

Test systems include NCI-H23 lung; M14 melanoma; MCF7 breast; HCT-116 colon; NCI-H522 lung; SR leukemia; SW-620 colon; LOX IMVI melanoma; SF-295 CNS; UACC-257 melanoma; OVCAR-3 ovarian.
What all share (experiment): growth of human tumour cells (NCI), 48 h

With `COc1cc(OC)c2nc(C)c(CCCl)c(Cl)c2c1`, the TGI with NCI-H23 lung, with M14 melanoma, in the test with MCF7 breast, with HCT-116 colon, with NCI-H522 lung and in the test with SR leukemia was > 100 µM in each case. Further, the TGI in the test with SW-620 colon, in the test on LOX IMVI melanoma, with SF-295 CNS, in the test on UACC-257 melanoma and in the test on OVCAR-3 ovarian was > 100 µM each time.
`O=[N+]([O-])c1ccc2[nH]c(=S)[nH]c(=S)c2c1`: the TGI with NCI-H23 lung, in the test with M14 melanoma, in the test on MCF7 breast, with HCT-116 colon, with NCI-H522 lung and in the test with SR leukemia was > 100 µM in each case. For the same molecule, the TGI in the test with LOX IMVI melanoma, in the test on SF-295 CNS, in the test with UACC-257 melanoma and in the test on OVCAR-3 ovarian was > 100 µM in each case.
For the molecule `Fc1ccc2c(c1)nc1n2C(c2c(Cl)cccc2Cl)SC1` (stereo not given), the TGI in the test with NCI-H23 lung is 26.2 µM; in the test on M14 melanoma it was 29.9 µM; in the test on MCF7 breast, 32.2 µM; with HCT-116 colon, 18.3 µM; in the test on NCI-H522 lung, 28.7 µM; with SR leukemia it was > 100 µM. The TGI in the test with SW-620 colon stood at 27.6 µM; in the test with LOX IMVI melanoma, 28.2 µM; with SF-295 CNS, 26.8 µM; with UACC-257 melanoma it was 34.3 µM; in the test with OVCAR-3 ovarian, 26 µM.
Consider `CO/N=C(\C(=O)OC(=NC1CCCCC1)NC1CCCCC1)c1csc(NC(c2ccccc2)(c2ccccc2)c2ccccc2)n1`, for which the TGI with NCI-H23 lung, with M14 melanoma, in the test with MCF7 breast, in the test with HCT-116 colon, with NCI-H522 lung and in the test on SR leukemia was > 10 µM throughout. The TGI in the test on SW-620 colon, with LOX IMVI melanoma, in the test on SF-295 CNS, in the test with UACC-257 melanoma and in the test on OVCAR-3 ovarian was > 10 µM in each case.
For `CO/N=C(\C)c1ccc(Nc2nc3ccccc3c3occc23)cc1`, the TGI stood at 28.9 µM with NCI-H23 lung; 30.2 µM in the test with M14 melanoma; 31 µM in the test on MCF7 breast; 27.9 µM in the test with HCT-116 colon; 24 µM with NCI-H522 lung; 58.6 µM with SR leukemia. Also, the TGI in the test with LOX IMVI melanoma amounted to 32.1 µM; with SF-295 CNS, 31.5 µM; in the test with UACC-257 melanoma, 31.4 µM; with OVCAR-3 ovarian it was 96.1 µM.
Turning to `COC(=O)/C=C(\C(=O)OC)C1C(=O)Oc2c(C)c(=O)c3ccccc3n21` (stereo not given), the TGI in the test with NCI-H23 lung, in the test with M14 melanoma, in the test on MCF7 breast, in the test on HCT-116 colon, in the test on NCI-H522 lung and in the test on SR leukemia was > 100 µM each time. Moreover, the TGI in the test on SW-620 colon, with LOX IMVI melanoma, with SF-295 CNS, with UACC-257 melanoma and in the test with OVCAR-3 ovarian was > 100 µM in each case.
With `C=CCn1c(N)c(C#N)c(C#N)c1-c1ccccc1`, the TGI in the test on NCI-H23 lung, in the test on M14 melanoma, with MCF7 breast, with NCI-H522 lung, in the test on SR leukemia and in the test with SW-620 colon was > 100 µM throughout. Further, the TGI with LOX IMVI melanoma, in the test on SF-295 CNS, with UACC-257 melanoma and in the test on OVCAR-3 ovarian was > 100 µM in each case.
Regarding `O=c1[nH]cnc2c1cnn2Cc1cn(CCCCO)nn1`, the TGI in the test on NCI-H23 lung, in the test on M14 melanoma, with MCF7 breast, in the test on HCT-116 colon, in the test on NCI-H522 lung and with SR leukemia was > 100 µM in each case. In addition, the TGI in the test on SW-620 colon, in the test with LOX IMVI melanoma, with SF-295 CNS, in the test with UACC-257 melanoma and with OVCAR-3 ovarian was > 100 µM in each case.
With `CCn1c(-c2ccccc2)cs/c1=N\C(P(=O)(O)O)P(=O)(O)O`, the TGI in the test on NCI-H23 lung, in the test with M14 melanoma, in the test with MCF7 breast, with HCT-116 colon, in the test with NCI-H522 lung and in the test on SR leukemia was > 100 µM each time. Moreover, the TGI in the test with SW-620 colon, with LOX IMVI melanoma, with SF-295 CNS, in the test with UACC-257 melanoma and in the test on OVCAR-3 ovarian was > 100 µM each time.
In the case of `O=C1Nc2cccc(Cl)c2/C1=C\c1c(Cl)nc2n1CCS2`, the TGI with NCI-H23 lung, with M14 melanoma, in the test on MCF7 breast, in the test on HCT-116 colon, in the test on NCI-H522 lung and with SR leukemia was > 100 µM in each case. The TGI in the test with SW-620 colon, in the test on LOX IMVI melanoma, with SF-295 CNS, in the test on UACC-257 melanoma and with OVCAR-3 ovarian was > 100 µM each time.
`CCOC(=O)CCC(NC(=O)Cc1ccc(Nc2nc3cc(F)c(F)cc3nc2C(=O)OCC)cc1)C(=O)OCC` (stereo not given): the TGI is > 100 µM in the test with NCI-H23 lung; > 100 µM in the test with M14 melanoma; > 100 µM in the test on MCF7 breast; > 100 µM in the test on HCT-116 colon; > 100 µM in the test on NCI-H522 lung; 55.9 µM with SR leukemia. Moreover, the TGI in the test with SW-620 colon, in the test with LOX IMVI melanoma, in the test with SF-295 CNS, with UACC-257 melanoma and in the test with OVCAR-3 ovarian was > 100 µM each time.
Consider `CCOC1(OCC)C2C=CC1C(COS(=O)(=O)c1ccc(C)cc1)C2COS(=O)(=O)c1ccc(C)cc1` (stereo not given), for which the TGI was > 100 µM in the test with NCI-H23 lung; 96.5 µM in the test on M14 melanoma; > 100 µM in the test on MCF7 breast; 77.1 µM in the test on HCT-116 colon; 57.1 µM with NCI-H522 lung; 58.6 µM with SR leukemia. The TGI in the test with SW-620 colon was > 100 µM; in the test on LOX IMVI melanoma, > 100 µM; in the test with SF-295 CNS, > 100 µM; in the test on UACC-257 melanoma, 62.2 µM; with OVCAR-3 ovarian, > 100 µM.
In the case of `O=C(O)CCCc1nc2c(n1Cc1ccccc1)C(=O)c1ccccc1C2=O`, the TGI was > 100 µM in the test on NCI-H23 lung; 20.6 µM in the test on M14 melanoma; > 100 µM in the test with MCF7 breast; > 100 µM in the test with HCT-116 colon; > 100 µM in the test on NCI-H522 lung; > 100 µM in the test with SR leukemia. The TGI is > 100 µM in the test with SW-620 colon; > 100 µM with LOX IMVI melanoma; 86.1 µM in the test on SF-295 CNS; 80.1 µM in the test with UACC-257 melanoma; 74.7 µM in the test on OVCAR-3 ovarian.
